Reference: patent US11932636B2, “RAD51 inhibitors” (Cyteir Therapeutics, Inc., priority 2019, dated 2024)

What follows are molecules tested on Daudi cells (AID positive) (assay: Compound primary screening: cell death in AID positive Daudi cells (Cell-Titer Glo, Day 7)). Settings: Homo sapiens, 168 h; Daudi cells, AID positive; cell death on Day 7, Cell-Titer Glo; read-out: Cellular activity in AID + (Daudi).
Assay type: cell-based
Outline: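 AID-positive Daudi cells were seeded at 1250 cells per well and treated with serially diluted compound delivered from a DMSO/media master plate. Cultures were incubated at 37 °C, and cell death was measured on Day 7 with Cell-Titer Glo luminescence.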

Row | SMILES | EC50 [µM]
1 | CCNS(=O)(=O)c1cc(Nc2cc(C(C)C)cnn2)ccc1-c1cnc([C@H]2CC[C@H](NC(=O)OC(C)C)CC2)s1 [Compound 164, isopropyl trans-N-[4-[5-[2-(ethylsulfamoyl)-4-[(5-isopropylpyridazin-3-yl)amino]phenyl]thiazol-2-yl]cyclohexyl]carbamate] | 0.1 to 1
2 | CCNS(=O)(=O)c1cc(Nc2ccnc(C(C)C)n2)ccc1-c1cnc([C@H]2CC[C@H](NC(=O)OC(C)C)CC2)s1 [Compound 136, isopropyl trans-N-[4-[5-[2-(ethylsulfamoyl)-4-[(2-isopropylpyrimidin-4-yl)amino]phenyl]thiazol-2-yl]cyclohexyl]carbamate] | < 0.1
3 | CCNS(=O)(=O)c1cc(C(=O)NC(C)C)ccc1-c1cnc([C@H]2CC[C@H](NC(=O)OC3COC3)CC2)s1 [Compound 68, oxetan-3-yl (trans-4-(5-(2-(N-ethylsulfamoyl)-4-(isopropylcarbamoyl)phenyl)thiazol-2-yl)cyclohexyl)carbamate] | 0.1 to 1
4 | CCNS(=O)(=O)c1cc(Nc2nnc[nH]2)ccc1-c1cnc([C@H]2CC[C@H](NC(=O)OC(C)C)CC2)s1 [Compound 152, isopropyl trans-N-[4-[5-[2-(ethylsulfamoyl)-4-(4H-1,2,4-triazol-3-ylamino)phenyl]thiazol-2-yl]cyclohexyl]carbamate] | < 0.1
5 | COc1cc(-c2ccc(-c3cnc([C@H]4CC[C@H](NC(=O)OC(C)C)CC4)s3)c(S(=O)(=O)NC(C)(C)C)c2)c(OC)nn1 [Compound 13, isopropyl (trans-4-(5-(2-(N-(tert-butyl)sulfamoyl)-4-(3,6-dimethoxypyridazin-4-yl)phenyl)thiazol-2-yl)cyclohexyl)carbamate] | 0.1 to 1
6 | CCNS(=O)(=O)c1cc(Nc2cc(C(C)C)ccn2)ccc1-c1cnc([C@H]2CC[C@H](NC(=O)OC(C)C)CC2)s1 [Compound 111, isopropyl trans-N-[4-[5-[2-(ethylsulfamoyl)-4-[(4-isopropyl-2-pyridyl)amino]phenyl]thiazol-2-yl]cyclohexyl]carbamate] | 0.1 to 1
7 | CNc1ccc(-c2cnc([C@H]3CC[C@H](NC(=O)OC(C)C)CC3)s2)c(S(=O)(=O)N2CCCC2)c1 [Compound 89, isopropyl trans-N-[4-[5-(4-(methylamino)-2-pyrrolidin-1-ylsulfonyl-phenyl)thiazol-2-yl]cyclohexyl]carbamate] | 0.1 to 1
8 | CCNS(=O)(=O)c1cc(C(=O)O)ccc1-c1cnc([C@H]2CC[C@H](NC(=O)OC3COC3)CC2)s1 [Compound 66, trans-3-(ethylsulfamoyl)-4-[2-[4-(oxetan-3-yloxy-carbonylamino)cyclohexyl]thiazol-5-yl]benzoic acid] | 1 to 10
9 | CC(C)OC(=O)N[C@H]1CC[C@H](c2ncc(-c3ccc(C#N)cc3S(=O)(=O)N3CCC3)s2)CC1 [Compound 54, isopropyl trans-N-[4-[5-[2-(azetidin-1-ylsulfonyl)-4-cyano-phenyl]thiazol-2-yl]cyclohexyl]carbamate] | 1 to 10
10 | CCNS(=O)(=O)c1cc(Nc2nncs2)ccc1-c1cnc([C@H]2CC[C@H](NC(=O)OC(C)C)CC2)s1 [Compound 119, isopropyl trans-N-[4-[5-[2-(ethylsulfamoyl)-4-[(1,3,4-thiadiazol-2-yl)amino]phenyl]thiazol-2-yl]cyclohexyl]carbamate] | < 0.1
11 | CCNS(=O)(=O)c1cc(Nc2ccn[nH]2)ccc1-c1cnc([C@H]2CC[C@H](NC(=O)OC)CC2)s1 [Compound 167, methyl trans-N-[4-[5-[2-(ethylsulfamoyl)-4-[(1H-pyrazol-5-yl)amino]phenyl]thiazol-2-yl]cyclohexyl]carbamate] | 0.1 to 1
12 | CCNS(=O)(=O)c1cc(NC2(C)COC2)ccc1-c1cnc([C@H]2CC[C@H](NC(=O)OC)CC2)s1 [Compound 165, methyl trans-N-[4-[5-[2-(ethylsulfamoyl)-4-[(3-methyl-oxetan-3-yl)amino]phenyl]thiazol-2-yl]cyclohexyl]carbamate] | 1 to 10
13 | CCNS(=O)(=O)c1cc(Nc2ccncn2)ccc1-c1cnc([C@H]2CC[C@H](NC(=O)OC(C)C)CC2)s1 [Compound 124, isopropyl trans-N-[4-[5-[2-(ethylsulfamoyl)-4-[(pyrimidin-4-yl)amino]phenyl]thiazol-2-yl]cyclohexyl]carbamate] | < 0.1
14 | CCNS(=O)(=O)c1cc(CC(=O)N(C)Cc2ccccc2)ccc1-c1cnc([C@H]2CC[C@H](NC(=O)OC(C)C)CC2)s1 [Compound 81, isopropyl trans-N-[4-[5-[4-[2-(benzyl(methyl)amino)-2-oxo-ethyl]-2-(ethyl-sulfamoyl)phenyl]thiazol-2-yl]cyclohexyl]carbamate] | 0.1 to 1
15 | CCNS(=O)(=O)c1cc(NC2(C(C)C)COC2)ccc1-c1cnc([C@H]2CC[C@H](NC(=O)OC(C)C)CC2)s1 [Compound 69, isopropyl trans-N-[4-[5-[2-(ethylsulfamoyl)-4-[(3-isopropyloxetan-3-yl)amino]phenyl]thiazol-2-yl]cyclohexyl]carbamate] | < 0.1
16 | CCNS(=O)(=O)c1cc(COCC(C)C)ccc1-c1cnc([C@H]2CC[C@H](NC(=O)OC3COC3)CC2)s1 [Compound 52, oxetan-3-yl trans-N-[4-[5-[2-(ethylsulfamoyl)-4-(isobutoxy-methyl)phenyl]thiazol-2-yl]cyclohexyl]carbamate] | 0.1 to 1
17 | CC(C)OC(=O)N[C@H]1CC[C@H](c2ncc(-c3ccc(-c4ccc5nn[nH]c5c4)cc3S(=O)(=O)NC(C)(C)C)s2)CC1 [Compound 19, isopropyl (trans-4-(5-(4-(1H-benzo[d][1,2,3]triazol-6-yl)-2-(N-(tert-butyl)sulfamoyl)phenyl)thiazol-2-yl)cyclohexyl)carbamate] | > 10
18 | CCNS(=O)(=O)c1cc(CC(=O)O)ccc1-c1cnc([C@H]2CC[C@H](NC(=O)OC(C)C)CC2)s1 [Compound 77, trans-2-[3-(ethylsulfamoyl)-4-[2-[4-(isopropoxycarbonyl-amino)cyclohexyl]thiazol-5-yl]phenyl]acetic Acid] | 1 to 10
19 | CCNS(=O)(=O)c1cc(C(=O)N2CCCC2)ccc1-c1cnc([C@H]2CC[C@H](NC(=O)OC(C)C)CC2)s1 [Compound 95, isopropyl trans-N-[4-[5-[4-pyrrolidin-1-ylcarbonyl-2-(ethylsulfamoyl)phenyl]thiazol-2-yl]cyclohexyl]carbamate] | 0.1 to 1
20 | CCNS(=O)(=O)c1cc(C(=O)NC(C)C)ccc1-c1cnc([C@H]2CC[C@H](NC(=O)OC(C)C)CC2)s1 [Compound 50, isopropyl (trans-4-(5-(2-(N-ethylsulfamoyl)-4-(isopropylcarbamoyl)phenyl)thiazol-2-yl)cyclohexyl)carbamate] | 0.1 to 1
21 | CCNS(=O)(=O)c1cc(Nc2ccn[nH]2)ccc1-c1cnc([C@H]2CC[C@H](NC(=O)OC(C)C)CC2)s1 [Compound 121, isopropyl trans-N-[4-[5-[2-(ethylsulfamoyl)-4-[(1H-pyrazol-5-yl)amino]phenyl]thiazol-2-yl]cyclohexyl]carbamate] | < 0.1
22 | CCNS(=O)(=O)c1cc(Nc2ccc(C(C)C)nn2)ccc1-c1cnc([C@H]2CC[C@H](NC(=O)OC(C)C)CC2)s1 [Compound 143, isopropyl trans-N-[4-[5-[2-(ethylsulfamoyl)-4-[(6-isopropylpyridazin-3-yl)amino]phenyl]thiazol-2-yl]cyclohexyl]carbamate] | < 0.1
23 | CCNS(=O)(=O)c1cc(OCCC(C)C)ccc1-c1cnc([C@H]2CC[C@H](NC(=O)OC3COC3)CC2)s1 [Compound 100, oxetan-3-yl trans-N-[4-[5-[2-(ethylsulfamoyl)-4-isopentyloxy-phenyl]thiazol-2-yl]cyclohexyl]carbamate] | 0.1 to 1
24 | CC(C)OC(=O)N[C@H]1CC[C@H](c2ncc(-c3ccc(Nc4nnc[nH]4)cc3S(=O)(=O)NC(C)(C)C)s2)CC1 [Compound 151, isopropyl trans-N-[4-[5-[2-(tert-butylsulfamoyl)-4-(4H-1,2,4-triazol-3-ylamino)phenyl]thiazol-2-yl]cyclohexyl]carbamate] | < 0.1
25 | CC(C)OC(=O)N[C@H]1CC[C@H](c2ncc(-c3ccc(Nc4ccc(Cl)nn4)cc3S(=O)(=O)NC(C)(C)C)s2)CC1 [Compound 173, isopropyl trans-N-[4-[5-[2-(tert-butylsulfamoyl)-4-[(6-chloropyridazin-3-yl)amino]phenyl]thiazol-2-yl]cyclohexyl]carbamate] | 0.1 to 1
26 | CCNS(=O)(=O)c1cc(N2CCCCC2)ccc1-c1cnc([C@H]2CC[C@H](NC(=O)OC(C)C)CC2)s1 [Compound 135, isopropyl trans-N-[4-[5-[2-(ethylsulfamoyl)-4-[piperidin-1-yl]phenyl]thiazol-2-yl]cyclohexyl]carbamate] | 0.1 to 1
27 | CCNS(=O)(=O)c1cc(N2CCS(=O)(=O)CC2)ccc1-c1cnc([C@H]2CC[C@H](NC(=O)OC(C)C)CC2)s1 [Compound 133, isopropyl trans-N-[4-[5-[2-(ethylsulfamoyl)-4-[1,1-dioxidothiomorpholino]phenyl]thiazol-2-yl]cyclohexyl]carbamate] | 1 to 10
28 | CCNS(=O)(=O)c1cc(NC2CN(CC(C)C)C2)ccc1-c1cnc([C@H]2CC[C@H](NC(=O)OC(C)C)CC2)s1 [Compound 145, isopropyl trans-N-[4-[5-[2-(ethylsulfamoyl)-4-[(1-isobutyl-azetidin-3-yl)amino]phenyl]thiazol-2-yl]cyclohexyl]carbamate] | 0.1 to 1

Same assay, conditions: Homo sapiens, Daudi, 168 h, read-out: Cellular activity in AID + (Daudi)

Row | SMILES | EC50 [µM]
29 | CCNS(=O)(=O)c1cc(Nc2ncc[nH]2)ccc1-c1cnc([C@H]2CC[C@H](NC(=O)OC3CC3)CC2)s1 [Compound 109, cyclopropyl trans-N-[4-[5-[2-(ethylsulfamoyl)-4-(1H-imidazol-2-ylamino)phenyl]thiazol-2-yl]cyclohexyl]carbamate] | 0.1 to 1
30 | CCNS(=O)(=O)c1cc(-c2ncco2)ccc1-c1cnc([C@H]2CC[C@H](NC(=O)OC(C)C)CC2)s1 [Compound 104, isopropyl trans-N-[4-[5-[2-(ethylsulfamoyl)-4-oxazol-2-yl-phenyl]thiazol-2-yl]cyclohexyl]carbamate] | 0.1 to 1
